Measured values taken from PubChem BioAssay (NCI).
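Grown in 96-well plates, cells were treated for 48 hours with each compound at five concentrations. Insufficient inhibition: endpoint recorded as highest concentration tested. GI50 = concentration required for 50% inhibition of growth. Definition used: TGI = concentration required for complete inhibition of growth.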

Key:
Test in all cases: DTP human tumour cell line panel, 48 h
786-0 renal = tested on: 786-0 renal
A549 NSCLC = tested on: A549 NSCLC
ACHN renal = tested on: ACHN renal
BT-549 breast = tested on: BT-549 breast
CAKI-1 renal = tested on: CAKI-1 renal
CCRF-CEM leukemia = tested on: CCRF-CEM leukemia
COLO 205 colon = tested on: COLO 205 colon
DU-145 prostate = tested on: DU-145 prostate
EKVX NSCLC = tested on: EKVX NSCLC
HCC-2998 colon = tested on: HCC-2998 colon
HCT-116 colon = tested on: HCT-116 colon
HCT-15 colon = tested on: HCT-15 colon
HL-60(TB) leukemia = tested on: HL-60(TB) leukemia
HOP-62 NSCLC = tested on: HOP-62 NSCLC
HOP-92 NSCLC = tested on: HOP-92 NSCLC
HS 578T breast = tested on: HS 578T breast
HT29 colon = tested on: HT29 colon
IGROV1 ovarian = tested on: IGROV1 ovarian
K-562 leukemia = tested on: K-562 leukemia
KM12 colon = tested on: KM12 colon
LOX IMVI melanoma = tested on: LOX IMVI melanoma
M14 melanoma = tested on: M14 melanoma
MALME-3M melanoma = tested on: MALME-3M melanoma
MCF7 breast = tested on: MCF7 breast
MDA-MB-231 breast = tested on: MDA-MB-231 breast
MDA-MB-435 = tested on: MDA-MB-435
MOLT-4 leukemia = tested on: MOLT-4 leukemia
NCI-H226 lung = tested on: NCI-H226 lung
NCI-H23 lung = tested on: NCI-H23 lung
NCI-H460 lung = tested on: NCI-H460 lung
NCI-H522 lung = tested on: NCI-H522 lung
NCI/ADR-RES ovarian = tested on: NCI/ADR-RES ovarian
OVCAR-3 ovarian = tested on: OVCAR-3 ovarian
OVCAR-4 ovarian = tested on: OVCAR-4 ovarian
OVCAR-5 ovarian = tested on: OVCAR-5 ovarian
OVCAR-8 ovarian = tested on: OVCAR-8 ovarian
PC-3 prostate = tested on: PC-3 prostate
RPMI-8226 leukemia = tested on: RPMI-8226 leukemia
RXF 393 renal = tested on: RXF 393 renal
SF-268 CNS = tested on: SF-268 CNS
SF-295 CNS = tested on: SF-295 CNS
SF-539 CNS = tested on: SF-539 CNS
SK-MEL-2 melanoma = tested on: SK-MEL-2 melanoma
SK-MEL-28 melanoma = tested on: SK-MEL-28 melanoma
SK-MEL-5 melanoma = tested on: SK-MEL-5 melanoma
SK-OV-3 ovarian = tested on: SK-OV-3 ovarian
SN12C renal = tested on: SN12C renal
SNB-19 CNS = tested on: SNB-19 CNS
SNB-75 CNS = tested on: SNB-75 CNS
SR leukemia = tested on: SR leukemia
SW-620 colon = tested on: SW-620 colon
T-47D breast = tested on: T-47D breast
TK-10 renal = tested on: TK-10 renal
U251 CNS = tested on: U251 CNS
UACC-257 melanoma = tested on: UACC-257 melanoma
UACC-62 melanoma = tested on: UACC-62 melanoma
UO-31 renal = tested on: UO-31 renal

CC[C@H](Nc1ncnc2nc[nH]c12)c1oc2ccccc2c(=O)c1-c1cccc(F)c1
GI50 (786-0 renal): 21.4 µM | TGI (786-0 renal): > 100 µM | GI50 (A549 NSCLC): 29.2 µM | TGI (A549 NSCLC): > 100 µM | GI50 (ACHN renal): 21.6 µM | TGI (ACHN renal): > 100 µM | GI50 (BT-549 breast): 21.1 µM | TGI (BT-549 breast): > 100 µM | GI50 (CAKI-1 renal): 14.7 µM | TGI (CAKI-1 renal): > 100 µM | GI50 (CCRF-CEM leukemia): 23.3 µM | TGI (CCRF-CEM leukemia): > 100 µM | GI50 (COLO 205 colon): 37.4 µM | TGI (COLO 205 colon): > 100 µM | GI50 (DU-145 prostate): 26.9 µM | TGI (DU-145 prostate): > 100 µM | GI50 (EKVX NSCLC): 31.8 µM | TGI (EKVX NSCLC): > 100 µM | GI50 (HCC-2998 colon): 35.7 µM | TGI (HCC-2998 colon): > 100 µM | GI50 (HCT-116 colon): 25.5 µM | TGI (HCT-116 colon): > 100 µM | GI50 (HCT-15 colon): 26.9 µM | TGI (HCT-15 colon): > 100 µM | GI50 (HL-60(TB) leukemia): 11 µM | TGI (HL-60(TB) leukemia): 42.5 µM | GI50 (HOP-62 NSCLC): 33.8 µM | TGI (HOP-62 NSCLC): > 100 µM | GI50 (HOP-92 NSCLC): 4.99 µM | TGI (HOP-92 NSCLC): 63.7 µM | GI50 (HS 578T breast): 14.1 µM | TGI (HS 578T breast): 86.9 µM | GI50 (HT29 colon): 28.3 µM | TGI (HT29 colon): > 100 µM | GI50 (IGROV1 ovarian): 15.2 µM | TGI (IGROV1 ovarian): 53.8 µM | GI50 (K-562 leukemia): 17.4 µM | TGI (K-562 leukemia): > 100 µM | GI50 (KM12 colon): 23.7 µM | TGI (KM12 colon): > 100 µM | GI50 (LOX IMVI melanoma): 26.3 µM | TGI (LOX IMVI melanoma): > 100 µM | GI50 (M14 melanoma): 28.1 µM | TGI (M14 melanoma): > 100 µM | GI50 (MALME-3M melanoma): 25.1 µM | TGI (MALME-3M melanoma): > 100 µM | GI50 (MCF7 breast): 21.1 µM | TGI (MCF7 breast): > 100 µM | GI50 (MDA-MB-231 breast): 16.6 µM | TGI (MDA-MB-231 breast): 50.3 µM | GI50 (MDA-MB-435): 18.7 µM | TGI (MDA-MB-435): 70.7 µM | GI50 (MOLT-4 leukemia): 13.1 µM | TGI (MOLT-4 leukemia): 49.1 µM | GI50 (NCI-H226 lung): 30.3 µM | TGI (NCI-H226 lung): > 100 µM | GI50 (NCI-H23 lung): 29.7 µM | TGI (NCI-H23 lung): > 100 µM | GI50 (NCI-H460 lung): 18.8 µM | TGI (NCI-H460 lung): 58.8 µM | GI50 (NCI-H522 lung): 19.7 µM | TGI (NCI-H522 lung): > 100 µM | GI50 (NCI/ADR-RES ovarian): 21.3 µM | TGI (NCI/ADR-RES ovarian): > 100 µM | GI50 (OVCAR-3 ovarian): 18.3 µM | TGI (OVCAR-3 ovarian): > 100 µM | GI50 (OVCAR-4 ovarian): 23.1 µM | TGI (OVCAR-4 ovarian): > 100 µM | GI50 (OVCAR-5 ovarian): 42.5 µM | TGI (OVCAR-5 ovarian): > 100 µM | GI50 (OVCAR-8 ovarian): 31.9 µM | TGI (OVCAR-8 ovarian): > 100 µM | GI50 (PC-3 prostate): 12.4 µM | TGI (PC-3 prostate): > 100 µM | GI50 (RPMI-8226 leukemia): 14.5 µM | TGI (RPMI-8226 leukemia): > 100 µM | GI50 (RXF 393 renal): 13.2 µM | TGI (RXF 393 renal): 78.2 µM | GI50 (SF-268 CNS): 22.6 µM | TGI (SF-268 CNS): > 100 µM | GI50 (SF-295 CNS): 18.4 µM | TGI (SF-295 CNS): > 100 µM | GI50 (SF-539 CNS): 31.4 µM | TGI (SF-539 CNS): > 100 µM | GI50 (SK-MEL-2 melanoma): 18.4 µM | TGI (SK-MEL-2 melanoma): 46.7 µM | GI50 (SK-MEL-28 melanoma): 22.6 µM | TGI (SK-MEL-28 melanoma): > 100 µM | GI50 (SK-MEL-5 melanoma): 14 µM | TGI (SK-MEL-5 melanoma): 28.2 µM | GI50 (SK-OV-3 ovarian): 24.1 µM | TGI (SK-OV-3 ovarian): > 100 µM | GI50 (SN12C renal): 19.7 µM | TGI (SN12C renal): > 100 µM | GI50 (SNB-19 CNS): 30.5 µM | TGI (SNB-19 CNS): > 100 µM | GI50 (SNB-75 CNS): 4.15 µM | TGI (SNB-75 CNS): 56.1 µM | GI50 (SR leukemia): 11.5 µM | TGI (SR leukemia): 50 µM | GI50 (SW-620 colon): 32.5 µM | TGI (SW-620 colon): > 100 µM | GI50 (T-47D breast): 8.24 µM | TGI (T-47D breast): > 100 µM | GI50 (TK-10 renal): 19.5 µM | TGI (TK-10 renal): 95.6 µM | GI50 (U251 CNS): 32.2 µM | TGI (U251 CNS): > 100 µM | GI50 (UACC-257 melanoma): 25.7 µM | TGI (UACC-257 melanoma): > 100 µM | GI50 (UACC-62 melanoma): 10.5 µM | TGI (UACC-62 melanoma): 69 µM | GI50 (UO-31 renal): 5.93 µM | TGI (UO-31 renal): 58 µM
